# Test results reported in patent US20220249586A1, “HEMP EXTRACT AND METHODS OF USE THEREOF” (ElleVet Sciences, priority 2019, published 2022).
# Where “and” joins values, the source holds several entries; their conditions need not be identical. Identical values can stand only once.
# Assays:
# [1] = Single-dose oral pharmacokinetics of CBD oil in beagles (serum CBD by LC-MS); type: in vivo; conditions: male, beagle, dog, median of 4 dogs, read-out: T½ elim (converted)
# Method: An initial investigation into single-dose oral pharmacokinetics was performed with 4 beagles (3.5-7 years, male castrated, 10.7-11.9 kg). Each dog received a 2 mg/kg and an 8 mg/kg oral dosage of CBD oil, with a 2-week washout period between each experiment. The dogs were fed two hours after dosing. Physical examination was performed at 0, 4, 8 and 24 hours after dosing. Attitude, behavior, proprioception, and gait were subjectively evaluated at each time point during free running/walking and navigation around standard traffic cones (weaving). Five ml of blood was collected at time 0, 0.5, 1, 2, 4, 8, 12 and 24 hours after oil administration. Blood samples were obtained via jugular venipuncture and transferred to a coagulation tube for 20 minutes. […]
# From the UHPLC-QQQ-MS data, peak areas were extracted for CBD detected in biological samples and normalized to the peak area of the internal standard CBD-d3, in each sample using Skyline as well as an in-house R Script (www.r-project.org). CBD concentrations were calculated to nanograms per mL of serum as determined by the line of regression of the standard curve (r2=0.9994, 0-1000 ng/mL). For this assay, the limits of detection (LOD) and limits of quantification (LOQ) represent the lower limits of detection and quantification for each compound in the matrix of this study. […]
# [2] = Feline pharmacokinetics (cannabidiol in serum by LC-MS/MS); type: in vivo, cat; parameters: AUC 0 −> t: concentration or dose not given beside the values
# Method: On the first day of dosing, blood was collected for a PK analysis from 6 of the 8 cats. The most cooperative cats were selected for the PK analysis. […] Samples were placed into a red top clotting tube with no serum separator. […] The harvested serum was placed in cyrovials stored at −70° C. Each tube was labeled with the cat id, date of collection and collection time point. Samples were shipped overnight on dry ice to the Proteomics & Metabolomics Facility at Colorado State University.
# 200 μL of cold (−20 C) 100% Acetonitrile (spiked with 60 ng/mL of d3-CBD) was added to each sample and vortexed at room temperature for 5 minutes. 200 μL of water was added and vortexed for an additional 5 minutes. 1 ml of 100% hexane was then added to each sample and vortexed for a final 5 minutes. […] The upper hexane layer was transferred to new-labeled glass vials (˜900 uL per sample), carefully avoiding the middle and lower layers.
# An 8 point standard curve of CBD was generated in matrix background using a blank serum. Concentrations ranged from 0 ng/mL 1000 ng/mL (3.2× dilution series). 50 uL of each spiked serum sample was extracted as above.
# LC-MS/MS was performed on a Waters Acquity M-Class UPLC coupled to a Waters Xevo TQ-S triple quadrupole mass spectrometer. […] Flow rate was 3.0 μL/min and injection volume was 2.0 μL. […]
# Each target analyte was visually inspected for retention time and peak area integration. Peak areas were extracted for target compounds detected in biological samples and normalized to the peak area of the appropriate internal standard in each sample using in-house R Script (TQS-tools). CBD concentrations were calculated in nanograms per milliliter of extract (0.06 mL) and then back calculated to nanograms per mL of serum (0.05 mL of serum).
# LOD are calculated based on the standard deviation of the response (Sy) of the 0 point calibration standard (i.e., 0 ng/mL CBD as an estimate on noise) and the slope of the calibration curve (S) at levels approximating the LOD according to the formula: LOD=^3*(Sy/S). […]
compound,measurement,setting,value
"C=C(C)[C@@H]1CCC(C)=C[C@H]1c1c(O)cc(CCCCC)cc1O [Cannabidiol, cannabidiol]",half-life,[1]; 2 mg/kg single oral dose,4.2 h
same,half-life,[1]; 8 mg/kg single oral dose,4.2 h
same,AUC 0 −> t,"[2]; individual cats, 0 time to last collection [24 hr]",265.0 ng·h/mL and 54.2 ng·h/mL and 42.4 ng·h/mL and 212.2 ng·h/mL and 125.0 ng·h/mL and 134.2 ng·h/mL and 60.2 ng·h/mL
same,Cmax,"[2]; serum, po, 2 mg/kg",47.6 ng/mL
same,half-life,"[2]; serum, po, 2 mg/kg, individual cats, oral 2/mg/kg cannabidiol in capsule form, read-out: T½ el (converted)",1.2 h
